{
  "source": "patent US20090214607A1",
  "about": "“Topical use of teprenone” (SEDERMA, priority 2005, published 2009)",
  "key": {"[1]": {"tested_on": "IL8", "assay": "IL8 in supernatant of γ-irradiated NHEK cells (ELISA)", "format": "cell-based, human", "details": "for decrease of IL8: vs irradiated control; for expression of IL8: γ-irradiation 5 Gγ, 4 days", "protocol": "In order to determine the action of teprenone as per the invention, the effect of GGA on the IL8 and VEGF expression was investigated in the supernatants of irradiated (with 5 Gy) NHEK cells. After γ-irradiation, NHEK cells are treated during 4 days with or without GGA at differents concentrations. The amount of IL8 and VEGF present in the cells supernatant is determined with ELISA method."}, "[2]": {"assay": "Lipid peroxidation of liposomes using UVA radiation", "format": "biochemical", "details": "UVA induced, vs negative control", "protocol": "(§1) In order to determine the action of teprenone as per the invention, the effect of the active substance on the lipid peroxidation of liposomes was analyzed. The liposomes were used to model cutaneous lipids.\nIn this method, liposomes are exposed to the test compound and then to UV A radiation. Peroxidation is determined by spectrophotometry at 233 nm."}, "[3]": {"assay": "Lipid peroxidation of liposomes using H2O2+FeCl2", "format": "biochemical", "details": "for Variation of peroxydation: vs negative control", "protocol": "as §1\nIn this method, liposomes are exposed to the test compound and a Fenton oxidative system. The peroxidation is determined by spectrophotometry. Trolox, a known anti-free radical agent, is used as the positive control at the same molar concentration as a teprenone."}, "[4]": {"tested_on": "Thioredoxin", "assay": "Thioredoxin in cellular supernatant of human fibroblasts (ELISA), with or without UVA", "format": "cell-based", "details": "for Thioredoxin rate in cellular supernatant: 10^−3%", "protocol": "Normal human fibroblasts were tested to ascertain whether exposure to teprenone would stimulate thioredoxin expression in the cellular supernatants.\nHuman fibroblasts (FHN) in culture were irradiated with UVA (4 and 6 J/cm^2) or not irradiated (control). 24 h before the irradiation, these cells were grown without or with teprenone (GGA at 10^−3%). After irradiation, each case received the same medium (with or without GGA) as before irradiation. Incubations of 24 or 48 h with these fresh mediums were made. Thioredoxin in the cellular supernants was estimated using ELISA method. The results obtained are recapitulated in Table 3"}, "[5]": {"tested_on": "Normal human fibroblasts (NHF)", "assay": "Replicative senescence: variation of division number", "format": "cell-based", "details": "1 and 3 μM; long-term contact; 64th day to 95th day", "protocol": "Replicative senescence reflects the aging of cells in cultures as they are serially sub-cultured. Normal human fibroblasts (NHF) were cultured in the absence or presence of 1 and 3 μM teprenone. At regular intervals, without awaiting confluence, the cells were counted, observed and sub-cultured at the same rate."}, "[6]": {"tested_on": "sunburn cells (SBC) in human skin explants", "assay": "Sunburn cells (SBC) in human skin explants after UVB", "format": "cell-based", "details": "for % SBC (Sun Burn Cells): after UVB 2 J/cm^2", "protocol": "With a view to determining the action of teprenone as per the invention, the effect of the active substance on the presence of sunburn cells (SBC) and apoptotic cell in human skin explants was investigated.\nHuman skin explants are treated in a way similar to the preceding experiment of description of the protective role of the teprenone on the catalase activity (obtained from a patient having undergone plastic surgery, cultured with or without teprenone for 48 hours then exposed to UV B radiation (2 J/cm^2). After irradiation, the explants were again cultured in fresh medium with or without teprenone for 24 hours).\nSBC were evidenced on paraffin-wax-embedded skin explant sections by staining with […]. SBC, apoptotic keratinocytes with pyknotic nuclei and eosinophilic cytoplasm, are characteristic of mammalian epidermis exposed to UV B radiation."}, "[7]": {"tested_on": "human primary keratinocytes", "assay": "Gene expression profile by DNA array (CodeLink Whole Genome bioarray)", "format": "cell-based", "protocol": "Human primary keratinocyte cultures were prepared and incubated in the presence or absence of teprenone. The culture supernatants were withdrawn and the cell monolayers frozen at −80° C. The un-thawed monolayers were exposed to lysis buffer and the cell RNA extracted using a commercially-available kit (Roche kit V6: total RNA extraction). Solvent controls underwent the same extraction process in parallel. The expression profiles of the gene sequences were determined using a CodeLink Whole Genome bioarray for each sample of purified RNA. The values obtained were normalized relative to the controls."}, "[8]": {"tested_on": "Hsp27", "assay": "Hsp27 immunolabeling in UVB-irradiated human skin explants", "format": "cell-based", "details": "for Number of Hsp27 positive cells/cm: UVB 2 J/cm2, n = 3", "description": "Heat Schock proteins (Hsp) are cellular protective molecules which contribute to the correct proteinic folding, thus preserving the protein activity. Hsp 27 is a protective chaperone protein very present in the keratinocytes at the basal state. In situation of UV stress, cell increases its rate of protection and Hsp 27 is strongly overexpressed. Hsp70 is a chaperone protein less expressed in a basal state but induced in response to the UV, thermics, mechanics or infectious stress.\nHuman skin explants are treated in a similar way to the previous experiment (protection on the catalase activity): taken from a plastic surgery, they are cultivated for 48 h in the presence or not, for control, of teprenone (or trolox) at various concentrations, then irradiated or not using a source UVB (2 J/cm2). After irradiation skin explants were post-treated (24 h) or not with teprenone (or trolox) at the same concentrations.\nExplants were embedded in OCT, sectioned using a freezing microtome, and slide mounted. The mounted specimens were immunolabeled with anti-human Hsp antibody."}, "[9]": {"tested_on": "NHEK", "assay": "NHEK cell re-colonization after scraping and irradiation", "format": "cell-based, human", "details": "3 · 10^−5%", "protocol": "NHEK were inoculated into Labtech microplates and cultured to post-confluence with or without teprenone. The cultures were then mechanically scraped and exposed to radiation at a dose level of 0, 5 or 10 Gy. The percentage area re-colonized post-irradiation was determined."}},
  "data": [
    {"smiles": "CC(=O)CCC=C(C)CCC=C(C)CCC=C(C)CCC=C(C)C", "note": "[Teprenone, 6,10,14,18-tetramethyl-5,9,13-nonadecatetren-2-one]", "values": [
      {"measurement": "decrease of IL8", "setting": "[1]; 1.10^−4%", "value": "−67", "unit": "%"},
      {"measurement": "decrease of IL8", "setting": "[1]; 3.10^−5%", "value": "−50", "unit": "%"},
      {"measurement": "expression of IL8", "setting": "[1]; 1 · 10^−4%", "value": 2.12, "unit": "pg/10^5 cells"},
      {"measurement": "expression of IL8", "setting": "[1]; 3 · 10^−5%", "value": 3.25, "unit": "pg/10^5 cells"},
      {"measurement": "Variation of peroxydation", "setting": "[2]; concentration 3 · 10^−2%", "value": "−77", "unit": "%"},
      {"measurement": "Variation of peroxydation", "setting": "[2]; concentration 3 · 10^−3%", "value": "−10", "unit": "%"},
      {"measurement": "Variation of peroxydation", "setting": "[2]; concentration 3 · 10^−4%", "value": "−22", "unit": "%"},
      {"measurement": "Variation of peroxydation", "setting": "[2]; concentration 10^−2%", "value": "−52", "unit": "%"},
      {"measurement": "Variation of peroxydation", "setting": "[2]; concentration 10^−3%", "value": "−12", "unit": "%"},
      {"measurement": "Variation of peroxydation", "setting": "[3]; concentration 3 · 10^−2%", "value": "−75", "unit": "%"},
      {"measurement": "Variation of peroxydation", "setting": "[3]; concentration 3 · 10^−3%", "value": "−26", "unit": "%"},
      {"measurement": "Variation of peroxydation", "setting": "[3]; concentration 3 · 10^−4%", "value": "−16", "unit": "%"},
      {"measurement": "decrease in peroxidation", "setting": "[3]; concentration 3.10^−2%", "value": 75, "unit": "%"},
      {"measurement": "Variation of peroxydation", "setting": "[3]; concentration 10^−2%", "value": "−39", "unit": "%"},
      {"measurement": "Variation of peroxydation", "setting": "[3]; concentration 10^−3%", "value": "−20", "unit": "%"},
      {"measurement": "Thioredoxin rate in cellular supernatant", "setting": "[4]; UVA 4 J/cm^2, incubation 24 h", "value": 24.3, "unit": "ng/mg protein"},
      {"measurement": "Thioredoxin rate in cellular supernatant", "setting": "[4]; UVA 4 J/cm^2, incubation 48 h", "value": 32.4, "unit": "ng/mg protein"},
      {"measurement": "Thioredoxin rate in cellular supernatant", "setting": "[4]; UVA 6 J/cm^2, incubation 24 h", "value": 43.7, "unit": "ng/mg protein"},
      {"measurement": "Thioredoxin rate in cellular supernatant", "setting": "[4]; UVA 6 J/cm^2, incubation 48 h", "value": 59.2, "unit": "ng/mg protein"},
      {"measurement": "Thioredoxin rate in cellular supernatant", "setting": "[4]; not irradiated, incubation 24 h", "value": 11.6, "unit": "ng/mg protein"},
      {"measurement": "Thioredoxin rate in cellular supernatant", "setting": "[4]; not irradiated, incubation 48 h", "value": 28.5, "unit": "ng/mg protein"},
      {"measurement": "increase of thioredoxin rate in the cellular supernatant", "setting": "[4]; 24 h incubation, 4 J/cm^2", "value": "+30%"},
      {"measurement": "increase of thioredoxin rate in the cellular supernatant", "setting": "[4]; 24 h incubation, 6 J/cm^2", "value": "+40%"},
      {"measurement": "increase of thioredoxin rate in the cellular supernatant", "setting": "[4]; 24 h incubation, without irradiation", "value": "+60%"},
      {"measurement": "increase of thioredoxin rate in the cellular supernatant", "setting": "[4]; 48 h incubation, 4 J/cm^2", "value": "+50%"},
      {"measurement": "increase of thioredoxin rate in the cellular supernatant", "setting": "[4]; 48 h incubation, 6 J/cm^2", "value": 40, "unit": "%"},
      {"measurement": "increase of thioredoxin rate in the cellular supernatant", "setting": "[4]; 48 h incubation, non irradiated", "value": "+150%"},
      {"measurement": "capacities of divisions of the cells", "setting": "[5]", "value": "level higher compared to the control"},
      {"measurement": "% SBC (Sun Burn Cells)", "setting": "[6]; 0.05 mM", "value": 45, "unit": "%"},
      {"measurement": "% SBC (Sun Burn Cells)", "setting": "[6]; 0.1 mM", "value": 27, "unit": "%"},
      {"measurement": "diminution of SBC", "setting": "[6]; after UVB, vs irradiated", "value": "−66", "unit": "%"},
      {"measurement": "expression of CBX5/HP1", "setting": "[7]; 24 hour period", "value": "jointly activated"},
      {"measurement": "expression of CDK2", "setting": "[7]; 24 hour period", "value": "jointly activated"},
      {"measurement": "expression of ELAVL1", "setting": "[7]; 24 hour period", "value": "activation"},
      {"measurement": "expression of ERBIN gene", "setting": "[7]; 24 hour period", "value": "up-regulated"},
      {"measurement": "expression of PTPRF-interacting gene", "setting": "[7]; 24 hour period", "value": "up-regulated"},
      {"measurement": "expression of SERTAD3", "setting": "[7]; 24 hour period", "value": "activated"},
      {"measurement": "expression of gene SCLY", "setting": "[7]; 24 hour period", "value": "significantly up-regulated"},
      {"measurement": "expression of gene for heat shock protein HSP 27", "setting": "[7]; 24 hour period", "value": "induction"},
      {"measurement": "expression of gene for heat shock protein HSP B3", "setting": "[7]; 24 hour period", "value": "induction"},
      {"measurement": "genes activated, effect on cell lipid content", "setting": "[7]; cholesterol efflux and fatty acid synthesis", "value": 6, "unit": "genes"},
      {"measurement": "Hsp27: Protection vs. irradiated (%)", "setting": "[8]; 0.05 mM", "value": 50, "unit": "%"},
      {"measurement": "Hsp27: Protection vs. irradiated (%)", "setting": "[8]; 0.1 mM", "value": 75, "unit": "%"},
      {"measurement": "Hsp27: Protection vs. irradiated (%)", "setting": "[8]; 0.1 mM, listed as GGA", "value": 75, "unit": "%"},
      {"measurement": "Number of Hsp27 positive cells/cm", "setting": "[8]; 0.05 mM", "value": 530, "unit": "cells/cm"},
      {"measurement": "Number of Hsp27 positive cells/cm", "setting": "[8]; 0.1 mM", "value": 400, "unit": "cells/cm"},
      {"measurement": "% on NHEK re-colonization 24 hours after", "setting": "[9]; 5 Gγ", "value": "faster re-colonization"},
      {"measurement": "% on NHEK re-colonization 24 hours after", "setting": "[9]; 5 Gγ, listed as GGA", "value": 80, "unit": "%"},
      {"measurement": "% on NHEK re-colonization 24 hours after", "setting": "[9]; 10 Gγ", "value": 60, "unit": "%"},
      {"measurement": "% on NHEK re-colonization 24 hours after", "setting": "[9]; not irradiated", "value": 62, "unit": "%"}
    ]}
  ]
}
